Experiment [1] is described as follows: antiviral activity in vivo. Particulars: no test details given.
The subject of experiment [2] is Newcastle disease virus (NDV). The experiment in a line: microbe, parasite or virus in culture. The experiment is classed as cell-based, Newcastle disease virus; chick embryo tissue culture. Particulars: for inhibition at 4 µg/mL / inhibition at 8 µg/mL / inhibition at 16 µg/mL: avian paramyxovirus 1, in Gallus gallus, 48 h, read-out: % Inhibition of NDV Multiplications.

Where a name gives a salt, the structure may show the parent alone.

Usually inhibition stands for the percentage by which the read-out fell short of the control. Take `COC(=O)C12CCCC3CC(CCC31)C2` (stereo not drawn) [VI, Methyl 4-homoisotwistane-3-carboxylate]: the “antiviral activity in vivo” value in experiment [1] was “potent antiviral activity in vivo”. Moreover, in experiment [2], the inhibition at 4 µg/mL is 0%, the inhibition at 8 µg/mL was determined as 91.2% and the inhibition at 16 µg/mL was 99.4%. Further, in experiment [2] (in vitro, NDV, versus amantadine hydrochloride), the “antiviral activity compared with amantadine hydrochloride” value is “extremely superior”. Besides, the “virus replication in the tissue culture” value in experiment [2] (tissue culture containing above 4 μg/ml) is reported as “almost completely inhibited”.

For `NC12CC3CC(CC(C3)C1)C2` [Amantadine . HCl, amantadine hydrochloride, reference compound], in experiment [2], the inhibition at 4 µg/mL stood at 0%, the inhibition at 8 µg/mL turned out to be 0% and the inhibition at 16 µg/mL was found to be 0%.

(Values after patent US4002674A (priority 1974, dated 1977).)
